Data taken from patent publication US20240261234A1, “USE OF C[…] THE TREATMENT OF NOCTURNAL SNORING” (GW Research Limited, priority 2014, published 2024).
“And” between values parts separate entries of the source, which are not always exact repeats. Equal entries are not always repeated. “Also recorded” adds a separate entry of the source.

Key:
apnea hypopnea index = settings: short term; small trial; cited from earlier work
[1] = system: nocturnal snoring in a patient with Doose Syndrome; assay: Expanded access compassionate use program: nocturnal snoring with CBD therapy; assay type: in vivo, children and young adults
Description: (§1) Of 137 children and young adults with severe, childhood onset treatment-resistant epilepsy (TRE), six suffered from Doose Syndrome. These subjects were tested with a highly purified extract of cannabidiol (CBD) obtained from a cannabis plant. The participants in the study were part of an expanded access compassionate use program for CBD.
(§2) All of these patients with a diagnosis of Doose Syndrome presented with multiple seizure types which included tonic-clonic seizures; myoclonic seizures; atonic seizures; absence seizures; myoclonic-absence seizures; and tonic seizures. In addition nocturnal snoring was encountered by one of the patients in the study.
(§3) The patients then received a highly purified CBD extract (greater than 98% CBD w/w) in sesame oil, of known and constant composition, at a dose of 5 mg/kg/day in addition to their baseline anti-epileptic drug (AED) regimen.
Table 5 below describes the data that was collated for the other seizure types including nocturnal snoring.

[2] = system: seizures in treatment-resistant epilepsy characterised by Doose Syndrome; assay: Expanded access compassionate use program: seizure frequency with CBD therapy in Doose Syndrome; assay type: in vivo, children and young adults
Description: as §1, §2
Both patients entered a baseline period of 4 weeks when parents/caregivers kept prospective seizure diaries, noting all countable motor seizure types.
as §3
Laboratory testing for hematologic, liver, kidney function, and concomitant AED levels was performed at baseline, and after CBD therapy.
All patients were taking at least two concomitant anti-epileptic drugs. These included clobazam; diazepam; lacosamide; lamotrigine; levetiracetam; lorazepam; nordiazepam; n-desmethylclobazam; phenytoin; valproic acid; zonisamide. The average number of concomitant antiepileptic drugs being taken was 2.7. The majority took either clobazam and/or valproic acid.
There were 6 children and young adult patients who received at least 3 months of treatment all of whom suffered from treatment-resistant epilepsy which is characterised by Doose Syndrome.
The change from baseline in the number of different seizures and total number of seizures after 16 weeks treatment are summarized in Table 4 below.

[3] = Solubility of the drug substance in water; assay type: physicochemical
Source text: The drug substance, CBD is insoluble in water. Sesame oil was selected as an excipient to solubilize the drug substance.

[4] = nocturnal snoring (n = 1), Doose Syndrome patient
[5] = absence seizures (n = 3), Doose Syndrome patients
[6] = atonic seizures (n = 2), Doose Syndrome patients
[7] = tonic-clonic seizures (n = 5), Doose Syndrome patients

In the case of `CCCCCc1cc(O)c2c(c1)OC(C)(C)[C@@H]1CCC(C)=C[C@@H]21` [dronabinol, Tetrahydro- cannabinol], the “Effect on apnea hypopnea index” value (apnea hypopnea index) is given as “able to reduce the apnea hypopnea index”.
For `C=C(C)[C@@H]1CCC(C)=C[C@H]1c1c(O)cc(CCCCC)cc1O` [CBD, Cannabidiol], the “Effect on occurrence of nocturnal snoring (in words)” value ([1]; a child with Doose Syndrome) was “completely eliminate the occurrence of nocturnal snoring”, the “Patients with <50% reduction in nocturnal snoring” value [1, 4] was 0% and the “Patients with >50% reduction in nocturnal snoring” value [1, 4] was 100%. The “Patients with <50% reduction in absence seizures” value [2, 5] was 0%, the “Patients with >50% reduction in absence seizures” value [2, 5] was 100% and the “Number of Doose syndrome patients with a decrease in total seizure frequency” value ([2]; after 3 months of therapy, of 6 patients) was “five”. For the same compound, the “Patients with <50% reduction in atonic seizures” value [2, 6] was 50%, the “Patients with >50% reduction in atonic seizures” value [2, 6] was 50% and the “Effect on seizure sub-types associated with Doose Syndrome (in words)” value ([2]; patients not responding well to existing AED) was “very effective treatment for all of the seizure sub-types; also recorded: significantly reduces the number of seizures”. The “Change in baseline (%) in total seizure frequency” value ([2]; per subject (subjects 1-6, Doose Syndrome), after 16 weeks treatment, CBD 5 up to 25 mg/kg/day added to baseline AED) was −100.0% (2×) and 65.8% and −67.4% and −68.7% and −92.0%, the “>50% reduction in seizures (total seizures)” value ([2]; per subject (subjects 1-6, Doose Syndrome), after 16 weeks treatment, Yes/No) was “Yes (5×) and No” and the “Patients with <50% reduction in tonic-clonic seizures” value [2, 7] was 20%. The “Patients with >50% reduction in tonic-clonic seizures” value [2, 7] was 80% and the Solubility in water [3] was “insoluble”.
